Read-outs that look alike come from different tables or passages of the source.
How the values were obtained:
[1] = not given; remark: listed apart in the source
human SGLT2 = human SGLT2 (Homo sapiens (Human), UniProt P31639); assay: Inhibitory effects on human SGLT2 activities (14C-AMG uptake in CHO cells expressing hSGLT2); assay type: cell-based; details: CHO cells stably expressing hSGLT2, 37° C., 2 h
Protocol: Human SGLT2 (hSGLT2) gene was amplified by PCR from cDNA-Human Adult Normal Tissue Kidney (Invitrogen). The hSGLT2 sequence was cloned into pcDNA3.1(+) for mammalian expression and were stably transfected into chinese hamster ovary (CHO) cells. SGLT2-expressing clones were selected based on resistance to G418 antibiotic (Geneticin) and activity in the ^14C-α-methyl-D-glucopyranoside (^14C-AMG) uptake assay.
For sodium-dependent glucose transport assay, cells expressing hSGLT2 were seeded into a 96-well culture plate at a density of 5×10^4 cells/well in RPMI medium 1640 containing 10% fetal bovine serum. The cells were used 1 day after plating. They were incubated in pretreatment buffer (10 mM HEPES, 5 mM Tris, 140 mM choline chloride, 2 mM KCl, 1 mM CaCl2, and 1 mM MgCl2, pH 7.4) at 37° C. for 10 min. They were then incubated in uptake buffer (10 mM HEPES, 5 mM Tris, 140 mM NaCl, 2 mM KCl, 1 mM CaCl2, 1 mM MgCl2, and 1 mM ^14C-nonlabeled AMG pH 7.4) containing ^14C-labeled AMG (8 μM) and the inventive compound or dimethyl sulfoxide (DMSO) vehicle at 37° C. for 2 h. Cells were washed twice with washing buffer (pretreatment buffer containing 10 mM AMG at room temperature) and then the radioactivity was measured using a liquid scintillation counter. IC50 was determined by nonlinear regression analysis using GraphPad PRISM [Katsuno, K. et al. J. Pharmacol. Exp. Ther. 2007, 320, 323-330; Han, S. et al. Diabetes, 2008, 57, 1723-1729].

Sequence of human SGLT2 (P31639 whole entry): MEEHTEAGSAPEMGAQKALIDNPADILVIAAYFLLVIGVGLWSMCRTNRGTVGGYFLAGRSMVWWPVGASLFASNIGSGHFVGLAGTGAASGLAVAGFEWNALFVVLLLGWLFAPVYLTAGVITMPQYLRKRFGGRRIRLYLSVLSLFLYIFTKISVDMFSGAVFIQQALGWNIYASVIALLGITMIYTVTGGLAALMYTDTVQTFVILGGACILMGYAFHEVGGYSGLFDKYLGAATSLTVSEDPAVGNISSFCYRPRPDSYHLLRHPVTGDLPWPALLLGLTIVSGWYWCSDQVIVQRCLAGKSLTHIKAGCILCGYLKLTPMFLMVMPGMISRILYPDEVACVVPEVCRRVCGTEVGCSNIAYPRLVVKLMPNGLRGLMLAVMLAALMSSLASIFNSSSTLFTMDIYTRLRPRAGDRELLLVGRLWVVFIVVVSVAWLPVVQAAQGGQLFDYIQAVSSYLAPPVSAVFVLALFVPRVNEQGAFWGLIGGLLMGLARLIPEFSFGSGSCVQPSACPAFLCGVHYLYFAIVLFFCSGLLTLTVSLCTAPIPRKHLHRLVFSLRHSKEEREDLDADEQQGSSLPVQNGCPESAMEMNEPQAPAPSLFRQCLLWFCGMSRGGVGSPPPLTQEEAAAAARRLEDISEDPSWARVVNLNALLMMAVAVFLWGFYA

CCOc1ccc(Cc2cc3c(cc2Cl)OCC=CCOC[C@H]2O[C@@H]3[C@H](OC(C)=O)[C@@H](OC(C)=O)[C@@H]2OC(C)=O)cc1
ring closure, isolated yield (from C=CCOC[C@H]1O[C@@H](c2cc(Cc3ccc(OCC)cc3)c(Cl)cc2OCC=C)[C@H](OC(C)=O)[C@@H](OC(C)=O)[C@@H]1OC(C)=O, rcm bond, 12-membered ring, Grubbs II (20 mol%), DCM, 5.0 mM, 60.0 °C): 23% | ring closure, yield of all isomers ([1]; from C=CCOC[C@H]1O[C@@H](c2cc(Cc3ccc(OCC)cc3)c(Cl)cc2OCC=C)[C@H](OC(C)=O)[C@@H](OC(C)=O)[C@@H]1OC(C)=O, rcm bond, Grubbs 2nd generation catalyst, dichloromethane, 5.0 mM, 60.0 °C, 72.0 h): 23%

CCOc1ccc(Cc2cc3c(cc2Cl)OCC=CCOC[C@H]2O[C@@H]3[C@H](OCc3ccccc3)[C@@H](OCc3ccccc3)[C@@H]2OCc2ccccc2)cc1
ring closure, isolated yield (from C=CCOC[C@H]1O[C@@H](c2cc(Cc3ccc(OCC)cc3)c(Cl)cc2OCC=C)[C@H](OCc2ccccc2)[C@@H](OCc2ccccc2)[C@@H]1OCc1ccccc1, rcm bond, 12-membered ring, Grubbs II (11 mol%), DCM, 9.6 mM, 60.0 °C): 26% | ring closure, yield of all isomers ([1]; from C=CCOC[C@H]1O[C@@H](c2cc(Cc3ccc(OCC)cc3)c(Cl)cc2OCC=C)[C@H](OCc2ccccc2)[C@@H](OCc2ccccc2)[C@@H]1OCc1ccccc1, rcm bond, Grubbs 2nd generation catalyst, dichloromethane, 9.6 mM, 60.0 °C, 16.0 h): 26%

CCOc1ccc(Cc2cc3c(cc2Cl)OCCCCCOC[C@H]2O[C@@H]3[C@H](OCc3ccccc3)[C@@H](OCc3ccccc3)[C@@H]2OCc2ccccc2)cc1
ring closure, isolated yield (from CCOc1ccc(Cc2cc([C@@H]3O[C@H](COCCCCCI)[C@@H](OCc4ccccc4)[C@H](OCc4ccccc4)[C@H]3OCc3ccccc3)c(O)cc2Cl)cc1, ether bond, 13-membered ring, K2CO3/18-crown-6, toluene, 10.0 mM, 25.0 °C): 64% | ring closure, yield of all isomers ([1]; from CCOc1ccc(Cc2cc([C@@H]3O[C@H](COCCCCCI)[C@@H](OCc4ccccc4)[C@H](OCc4ccccc4)[C@H]3OCc3ccccc3)c(O)cc2Cl)cc1, ether bond, potassium carbonate / 18-crown-6, toluene, 10.0 mM, 25.0 °C, 16.0 h): 64%

CCOc1ccc(Cc2cc3c(cc2Cl)OC[C@H]2C[C@H]2COC[C@H]2O[C@@H]3[C@H](OCc3ccccc3)[C@@H](OCc3ccccc3)[C@@H]2OCc2ccccc2)cc1
ring closure, isolated yield (from CCOc1ccc(Cc2cc([C@@H]3O[C@H](CO)[C@@H](OCc4ccccc4)[C@H](OCc4ccccc4)[C@H]3OCc3ccccc3)c(OC[C@H]3C[C@H]3CI)cc2Cl)cc1, ether bond, 12-membered ring, NaH, DMF, 47.0 mM, 25.0 °C): 63% | ring closure, yield of all isomers ([1]; from CCOc1ccc(Cc2cc([C@@H]3O[C@H](CO)[C@@H](OCc4ccccc4)[C@H](OCc4ccccc4)[C@H]3OCc3ccccc3)c(OC[C@H]3C[C@H]3CI)cc2Cl)cc1, ether bond, sodium hydride, N,N-dimethylformamide, 47.0 mM, 25.0 °C, 3.0 h): 63%

CCOc1ccc(Cc2cc3c(cc2Cl)OC/C=C\COC[C@H]2O[C@@H]3[C@H](O)[C@@H](O)[C@@H]2O)cc1 [Example 1, (8R,9S,10R,11R,12S)-15-Chloro-14-(4-ethoxybenzyl)-2,5,7,8,9,10,11,12-octahydro-2H-8,12-epoxybenzo[g][1,6]dioxacyclotetradecine-9,10,11-triol]
IC50 (human SGLT2): 0.974 nM

CCOc1ccc(Cc2cc3c(cc2Cl)OCCCCOC[C@H]2O[C@@H]3[C@H](O)[C@@H](O)[C@@H]2O)cc1 [Example 2, (8R,9S,10R,11R,12S)-15-Chloro-14-(4-ethoxybenzyl)-2,3,4,5,7,8,9,10,11,12-decahydro-2H-8,12-epoxybenzo[g][1,6]dioxacyclotetradecine-9,10,11-triol]
IC50 (human SGLT2): 2.27 nM

CCOc1ccc(Cc2cc3c(cc2Cl)OCCCCCOC[C@H]2O[C@@H]3[C@H](O)[C@@H](O)[C@@H]2O)cc1 [Example 3, (9R,10S,11R,12R,13S)-16-Chloro-15-(4-ethoxybenzyl)-3,4,5,6,8,9,10,11,12,13-decahydro-2H-9,13-epoxybenzo[h][1,7]dioxacyclopentadecine-10,11,12-triol]
IC50 (human SGLT2): 0.899 nM

CCOc1ccc(Cc2cc3c(cc2Cl)OCCCCCCOC[C@H]2O[C@@H]3[C@H](O)[C@@H](O)[C@@H]2O)cc1 [Example 6, (10R,11S,12R,13R,14S)-17-Chloro-16-(4-ethoxybenzyl)-2,3,4,5,6,7,9,10,11,12,13,14-dodecahydro-10,14-epoxybenzo[i][1,8]dioxacyclohexadecine-11,12,13-triol]
IC50 (human SGLT2): 3.63 nM

CCc1ccc(Cc2cc3c(cc2Cl)OCCCCOC[C@H]2O[C@@H]3[C@H](O)[C@@H](O)[C@@H]2O)cc1 [Example 8, (8R,9S,10R,11R,12S)-15-Chloro-14-(4-ethylbenzyl)-2,3,4,5,7,8,9,10,11,12-decahydro-8,12-epoxybenzo[g][1,6]dioxacyclotetradecine-9,10,11-triol]
IC50 (human SGLT2): 1.4 nM

CCc1ccc(Cc2cc3c(cc2Cl)OCCCCCOC[C@H]2O[C@@H]3[C@H](O)[C@@H](O)[C@@H]2O)cc1 [Example 9, (9R,10S,11R,12R,13S)-16-Chloro-15-(4-ethylbenzyl)-3,4,5,6,8,9,10,11,12,13-decahydro-2H-9,13-epoxybenzo[h][1,7]dioxacyclopentadecine-10,11,12-triol]
IC50 (human SGLT2): 1.38 nM

CCc1ccc(Cc2cc3c(cc2Cl)OCCCCCCOC[C@H]2O[C@@H]3[C@H](O)[C@@H](O)[C@@H]2O)cc1 [Example 10, (10R,11S,12R,13R,14S)-17-Chloro-16-(4-ethylbenzyl)-2,3,4,5,6,7,9,10,11,12,13,14-dodecahydro-10,14-epoxybenzo[i][1,8]dioxacyclohexadecine-11,12,13-triol]
IC50 (human SGLT2): 1.4 nM

CSc1ccc(Cc2cc3c(cc2Cl)OCCCCOC[C@H]2O[C@@H]3[C@H](O)[C@@H](O)[C@@H]2O)cc1 [Example 11, (8R,9S,10R,11R,12S)-15-Chloro-14-(4-(methylthio)benzyl)-2,3,4,5,7,8,9,10,11,12-decahydro-8,12-epoxybenzo[g][1,6]dioxacyclotetradecine-9,10,11-triol]
IC50 (human SGLT2): 1.35 nM

CSc1ccc(Cc2cc3c(cc2Cl)OCCCCCOC[C@H]2O[C@@H]3[C@H](O)[C@@H](O)[C@@H]2O)cc1 [Example 12, (9R,10S,11R,12R,13S)-16-Chloro-15-(4-(methylthio)benzyl)-3,4,5,6,8,9,10,11,12,13-decahydro-2H-9,13-epoxybenzo[h][1,7]dioxacyclopentadecine-10,11,12-triol]
IC50 (human SGLT2): 0.778 nM

O[C@@H]1[C@@H](O)[C@H]2O[C@H](COCCCCOc3cc(Cl)c(Cc4ccc5c(c4)OCCO5)cc32)[C@H]1O [Example 13, (8R,9S,10R,11R,12S)-15-Chloro-14-((2,3-dihydrobenzo[b][1,4]dioxin-6-yl)-methyl)-2,3,4,5,7,8,9,10,11,12-decahydro-8,12-epoxybenzo[g][1,6]dioxacyclotetradecine-9,10,11-triol]
IC50 (human SGLT2): 3.65 nM

O[C@@H]1[C@@H](O)[C@H]2O[C@H](COCCCCCOc3cc(Cl)c(Cc4ccc5c(c4)OCCO5)cc32)[C@H]1O [Example 14, (9R,10S,11R,12R,13S)-16-Chloro-15-((2,3-dihydrobenzo[b][1,4]dioxin-6-yl)-methyl)-3,4,5,6,8,9,10,11,12,13-decahydro-2H-9,13-epoxybenzo[h][1,7]dioxacyclopentadecine-10,11,12-triol]
IC50 (human SGLT2): 1.38 nM

CCOc1ccc(Cc2cc3c(cc2Cl)OC[C@H]2C[C@H]2COC[C@H]2O[C@@H]3[C@H](O)[C@@H](O)[C@@H]2O)cc1 [Example 15, (4R,5S,6R,7R,8S)-11-Chloro-10-(4-ethoxybenzyl)-(1aR,14aS)-1a,2,4,5,6,7,8,9,10-octahydro-1H-4,8-epoxybenzo[g]cyclopropa[c][1,6]dioxacyclotetradecine-5,6,7-triol]
IC50 (human SGLT2): 2.3 nM

CCOc1ccc(Cc2cc3c(cc2Cl)OC[C@@H]2C[C@@H]2COC[C@H]2O[C@@H]3[C@H](O)[C@@H](O)[C@@H]2O)cc1 [Example 16, (4R,5S,6R,7R,8S)-11-Chloro-10-(4-ethoxybenzyl)-(1aS,14aR)-1a,2,4,5,6,7,8,9,10-octahydro-1H-4,8-epoxybenzo[g]cyclopropa[c][1,6]dioxacyclotetradecine-5,6,7-triol]
IC50 (human SGLT2): 14 nM
